In brackets after ≈: the same amount, converted by molar mass. Like-named read-outs stand apart in the source and are kept apart here. Marks after values point to notes of the source that are not given here.
Assays:
[1] = Corn seed treatment field trials (yield); format: in vivo; details: seed treatment in corn, multi-location replicated field trials
Experimental: (§1) Tioxazafen was combined with commercial fungicides and insecticides in a tank slurry mix with colorant, polymer, and water at the recommended rates and allowed to mix thoroughly. Using a Gustafson continuous batch seed coater the seed batch was loaded, the treatment slurry was injected and the mixture was allowed to tumble for 35-40 seconds before being ejected into a paper storage bag.
(§2) Predictive nematode sampling was conducted prior to field trial implementation to ensure appropriate levels of nematode pressure. Trial areas were divided into 2 acre sections based upon soil type, crop history, tillage, drainage, fertilization and other agronomic factors. […] Sub-samples (˜1 pint of soil) were taken from each composite sample and placed in a plastic bag, with appropriate handling to ensure viability of nematodes, and sent to a lab for nematode quantification. […]
(§3) Quantitative in-season nematode sampling using root and soil samples was conducted eight weeks after planting for corn and soy trials. […] Samples were sent to a lab for nematode quantification.
(§4) Yield data was collected using commercially available harvesting equipment to harvest each plot. The data were calculated to represent bushels per acre by taking the grain weight over the square footage of each plot and adjusting to 15% moisture.

[2] = Soy seed treatment field trials (yield); format: in vivo; details: seed treatment in soy, multi-location replicated field trials
Experimental: as §1, §2, §3, §4

root knot nematode (RKN) [3] = experiment: RKN greenhouse soil assay on cucumber plants; format: in vivo; details: Acetone formulation (10% acetone in 0.05% Triton X 100), 1 mg/kg
Source text: Cucumber seeds are planted in a sandy soil mixture in two inch square plastic pots. When the cotyledons are fully opened and just as the first leaf begins to emerge, usually 7 days after planting, chemistry for the 7 day treatment is applied. One week later the chemistry for the 0 day treatment is applied. Separate plants are used for each application. The plants are generally in the 1-2 leaf stage now. At least four hours after the chemistry application the pots are inoculated with root knot nematode (RKN) eggs. Plants are rated for galling 14 days after the egg inoculation.
(§5) One milligram of chemistry per four pots is equal to one kilogram per hectare of chemical. A standard test uses four replications. For rates above 2 kg/ha, the desired amount of chemical is weighed into a 30 ml vial (example: 8 kg/ha rate =8 mg chemical in 30 ml vial). The chemical is dissolved in 2 ml of appropriate solvent, generally acetone. For rates below 2 kg/ha, 2 milligrams of chemistry is weighed into the vial and dissolved in 2 ml of the solvent. The appropriate amount of chemical concentrate is then pipetted into a separate 30 ml vial and solvent is added to bring the volume to 2 ml (example 0.5 kg/ha=0.5 ml of concentrate+1.5 ml solvent). Each dissolved concentrate is then brought to a total of 20 milliliters using 0.05% Triton X 100 surfactant solution.
(§6) Pots to be treated are moist but not saturated. To each of four pots, five milliliters of the appropriate chemical solution is pipetted to the media surface making sure to avoid contact with the base of the plant. Immediately following chemical application, using a mist nozzle, the pot surface is wetted sufficiently to saturate the pot watering in the chemistry. The chemical application is done in the morning.
(§7) Nematode eggs, either SCN or RKN, are added to distilled water to create a concentration of 1000 vermiform eggs […]. At least four hours after chemical treatment the eggs are applied to the treated pots plus non-treated check plants. A small hole about 1 cm deep is punched into the pot surface. One milliliter of the nematode egg slurry is pipetted into the hole. Immediately afterwards the hole is gently covered. Watering of the test plants is then restricted to only water as needed to prevent wilt for a period of 24 hours. After the 24 hour restricted watering, normal sub-irrigation watering is done for the duration of the test.

root knot nematode (RKN) [4] = experiment: RKN greenhouse soil assay on cucumber plants; format: in vivo; details: Radex emulsifiable concentrate formulation (6.25% active ingredient)
root knot nematode = experiment: Pre-plant incorporated (PPI) greenhouse test of root knot nematode on cucumber plants; format: in vivo; details: fourteen day pre-plant incorporated; for pest or weed control at 4000 g/ha: 336 h, 4 kg/ha, read-out: percent control (galling reduction), 4 kg/ha rate; for pest or weed control at 8000 g/ha: 8 ka/ha, read-out: percent control (galling reduction), 8 ka/ha rate
Source text: The PPI test examines the effect of pre-incorporation of compounds in soil and longer aging to simulate in furrow methods of nematicide application in the field. The PPI test exposes compounds to a higher volume of soil and drying which can result in more severe soil binding. Compounds are also aged for longer periods which can lead to more extensive biotic and abiotic degradation further limiting activity.
The chemically treated soil (sandy soil mix) for all treatment days (e.g., 7 days, 14 days, 21 days) treatments is potted into their appropriate pots. On the same day the 7 day treatment pots are seeded. One week later eggs are applied and 14 days after egg application the test is harvested. The 14 day treatments are planted 7 days after the first planting. The 14 day planting and 7 day inoculation happen on the same day. One week later the 14 day treatments are inoculated with eggs. These are harvested 14 days after the inoculation. The 21 day treatments are planted 14 days after the first planting. The 14 day inoculation and 21 day planting are done on the same day. One week later the 21 day plants are inoculated with eggs. The 7 day treatment is harvested the same day as the 21 day inoculation. Fourteen days after inoculation the 21 day plants are harvested.
For each compound a stock is prepared using 4 mg material in 4 ml of acetone. The soil is mixed by placing 80 ml of field soil and 320 ml of sand in a plastic bag and mixing well. The formulation for treatment is done by adding 2.13 ml (8 kg/ha rate), 1.06 ml (4 kg/ha rate) or 0.53 ml (2 kg/ha rate) to a vial and raising it with 10 ml in 0.05% X100. Soil is then treated by adding the entire 10 ml to the 400 ml of mix in the bag. The treated soil is immediately mixed well in the sealed bag to distribute the compound evenly. Approximately 95 ml is used to fill each 2-inch square pot up to the top with some soil compression and flattening. For each compound and for the control treatments 4 pots are filled. All pots are watered until moist but with no run-out through the bottom.
The PPI test simulates 8, 4 and 2 kg/ha rates incorporated 15 cm deep in the field and is equivalent to the 2, 1 and 0.5 kg/ha drench application rates in the standard 2-inch pot cucumber greenhouse assay.

[5] = system: Heterodera glycines (SCN); experiment: Seed treatment test of soybean cyst nematode on soybean; format: in vivo; details: for pest or weed control at 0.375 mg/g / pest or weed control at 1.5 mg/g: Heterodera glycines, 672 h, read-out: percent cyst reduction relative to control blank treatment
Experimental: (§8) For a given concentration the chemical is dissolved in 500 ul of acetone and one gram of cucumber seed (RKN test) or soybean seed (SCN test) is added (e.g., 20 mg active ingredient in 500 ul acetone plus 1 gram of seed). The seed solutions are agitated until all seeds were thoroughly covered with the chemical solution. The acetone is then allowed to evaporate by air drying the seeds. The seeds are planted in 2-inch pots containing sandy soil and then the pots are inoculated with 1000 Meloidogyne incognita (RKN) or 1000 Heterodera glycines (SCN) eggs per pot three days after planting. Plants are rated for galling 14 days after egg inoculation for RKN or 28 days after egg inoculation for SCN.

Meloidogyne incognita = experiment: Summer field evaluation of pre-plant incorporated compounds on squash; format: in vivo; details: 4 kg/ha
Experimental: Test plots of 33 cm diameter holes were bored 41 cm deep into clay soil and filled with a mixture of 80% sand and 20% silt loam soil. Technical compound for each treatment was dissolved in 50 ml acetone containing 250 ul of Triton X-100 surfactant. This solution was added to 450 ml water and poured onto 95 liters of sand/soil mixture in a rotating drum mixer. While continuing to rotate the mixing drum 66 grams of chopped, galled, tomato roots was added and thoroughly distributed. The treated soil was sufficient to fill the top 15 cm of each of the 6 replicate plots, thus simulating a PPI treatment. The plots were then watered lightly and a mixture of M. incognita eggs and larvae were injected 5 cm deep at 5 points within the plot (100k eggs/larvae in 10m1 per plot). Three-week old squash (cv. Liberator III) with 1 fully expanded true leaf was planted 4 days after soil treatment, one per plot.

C. elegans = experiment: Three day C. elegans well assay; format: in vivo; details: Caenorhabditis elegans, L1 larvae
Method in brief: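 Contact assay in wells: DMSO dilutions (4 ul from 100× stocks at 10 mg/ml) with bacterial feed in M9 buffer plus ampicillin and nystatin. L1 (starvation-arrested) or L4 worms added, shaken at 20° C. Scored at 4, 24, 48 and 72 hours.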

[6] = system: soybean cyst nematode (SCN); experiment: SCN greenhouse sand assay on soybean plants; format: in vivo; details: Glycine max, 672 h, test d, read-out: percent control (cyst number reduction) relative to the control blank treatment; for pest or weed control at 100 g/ha: 0.1 kg/ha; for pest or weed control at 250 g/ha: 0.25 kg/ha
Source text: Soybeans seeds are planted in 100% sand in two inch square plastic pots. Chemical treatment is done when the soybeans show the first trifoliate beginning to emerge about 10 to 12 days after planting. At least four hours after chemical application the nematode soybean cyst nematode (SCN) eggs are applied and 28 days after the egg inoculation the test is harvested.
as §5, §6, §7

caspase-3 = experiment: Caspase-3 activity in H4IIE cells (DEVD-AMC); format: cell-based; details: rat hepatoma derived H4IIE cells, concentrations up to 300 μM
Experimental: To evaluate whether the compound classes of this invention are able to induce apoptosis, caspase-3 activity was determined after compound exposure in rat hepatoma derived H4IIE cells using a caspase substrate (DEVD, Asp-Glu-Val-Asp) labeled with a fluorescent molecule, 7-Amino-4-methylcoumarin (AMC). Caspase 3 cleaves the tetrapeptide between D and AMC, thus releasing the fluorogenic […] AMC. Following the test article exposure to cells in 96-well plates, medium was aspirated from plates and PBS added to each well. Plates were stored at −80° C. to lyse cells and store samples until further analysis. On the day of analysis, plates were removed from freezer and thawed. Caspase buffer with fluorescent substrate was added to each well and incubated at room temperature for one hour. AMC release was measured in a spectrofluorometer at an excitation wavelength of 360 nm and an emission wavelength of 460 nm. Values are expressed as relative fluorescent units (RFU).

[7] = system: Meloidogyne incognita (RKN); experiment: Seed treatment test of root knot nematode on cucumber; format: in vivo; details: 10 mg ai/gram seed (abamectin positive control), cucumber seeds
Experimental: as §8

[8] = mice; cited from earlier work
[9] = 24 h, one day of exposure, read-out: EC50 L1 1D
[10] = 48 h, two days of exposure, read-out: EC50 L1 2D
[11] = 72 h, three days of exposure, read-out: EC50 L1 3D

Compound: c1ccc(-c2noc(-c3cccs3)n2)cc1 [Tioxazafen, 3-phenyl-5-(2-thienyl)-1,2,4-oxadiazole]
- effect on yield [1]: yield enhancement
- effect on yield [2]: yield enhancement

Compound: Fc1ccc(-c2noc(-c3cccs3)n2)cc1 [compound 5479]
- percent control (galling reduction), Acetone 1 mg/kg (root knot nematode (RKN) [3]): 91%
- percent control (galling reduction), Radex 1 mg/kg (root knot nematode (RKN) [4]): 96%
- pest or weed control at 4000 g/ha (root knot nematode; test a): 89%
- percent control (galling reduction), 2 kg/ha rate (root knot nematode; test a): 71^a percent
- pest or weed control at 8000 g/ha (root knot nematode; test a): 100%
- pest or weed control at 0.375 mg/g ([5]; 0.375 mg ai/gram seed, test a): 67%
- pest or weed control at 0.375 mg/g ([5]; 0.375 mg ai/gram seed, test b): 69%
- pest or weed control at 1.5 mg/g ([5]; 1.5 mg ai/gram seed, test a): 88%
- pest or weed control at 1.5 mg/g ([5]; 1.5 mg ai/gram seed, test b): 83%

Compound: Clc1ccc(-c2noc(-c3ccco3)n2)cc1 [compound 5523]
- percent control (galling reduction), Acetone 1 mg/kg (root knot nematode (RKN) [3]): 86%
- percent control (galling reduction), Radex 1 mg/kg (root knot nematode (RKN) [4]): 86%
- pest or weed control at 4000 g/ha (root knot nematode; test a): 87%
- percent control (galling reduction), 2 kg/ha rate (root knot nematode; test a): 59^a percent
- pest or weed control at 8000 g/ha (root knot nematode; test a): 99%
- control of M. incognita by PPI application (Meloidogyne incognita): significant control

Compound: Clc1ccc(-c2noc(-c3cccs3)n2)cc1 [compound 5527]
- percent control (galling reduction), Acetone 1 mg/kg (root knot nematode (RKN) [3]): 91%
- percent control (galling reduction), Radex 1 mg/kg (root knot nematode (RKN) [4]): 80%
- pest or weed control at 4000 g/ha (root knot nematode; test a): 90%
- percent control (galling reduction), 2 kg/ha rate (root knot nematode; test a): 57^a percent
- pest or weed control at 8000 g/ha (root knot nematode; test a): 96%
- pest or weed control at 0.375 mg/g ([5]; 0.375 mg ai/gram seed, test a): 43%
- pest or weed control at 1.5 mg/g ([5]; 1.5 mg ai/gram seed, test a): 71%

Compound: Fc1cc(Cl)ccc1-c1cnc(-c2cccs2)o1 [compound 5915]
- EC50 (C. elegans; [9]): 0.4 µg/mL (≈ 1.43 µM)
- EC50 (C. elegans; [10]): 0.4 µg/mL (≈ 1.43 µM)
- EC50 (C. elegans; [11]): 0.4 µg/mL (≈ 1.43 µM)
- pest or weed control at 100 g/ha [6]: 44%
- pest or weed control at 250 g/ha [6]: 74%
- induction of caspase-3 (caspase-3): no induction of caspase-3
- pest or weed control at 4000 g/ha (root knot nematode; test b): 70%
- pest or weed control at 8000 g/ha (root knot nematode; test b): 99%

Compound: Cc1cc(Cl)ccc1-c1nsc(-c2ccco2)n1 [compound 5938]
- EC50 (C. elegans; [9]): 1.6 µg/mL (≈ 5.78 µM)
- EC50 (C. elegans; [10]): 1.6 µg/mL (≈ 5.78 µM)
- EC50 (C. elegans; [11]): 1.6 µg/mL (≈ 5.78 µM)
- pest or weed control at 100 g/ha [6]: 60%
- pest or weed control at 250 g/ha [6]: 89%
- induction of caspase-3 (caspase-3): no induction of caspase-3
- pest or weed control at 4000 g/ha (root knot nematode; test b): 90%
- pest or weed control at 8000 g/ha (root knot nematode; test b): 100%
- control of M. incognita by PPI application (Meloidogyne incognita): excellent control

Compound: Abamectin [reference compound]
- percent control (galling reduction) relative to the control blank treatment [7]: 84%
- oral LD50 [8]: 13.6 mg/kg
- percent cyst reduction relative to control blank treatment ([5]; 0.375 mg ai/gram seed, test a): −14^a percent
- percent cyst reduction relative to control blank treatment ([5]; 1.5 mg ai/gram seed, test a): −24^a percent

— patent US20170367338A1, “COMPOSITIONS AND METHODS FOR IMPROVING AGRONOMIC CHARACTERISTICS OF PLANTS” (MONSANTO TECHNOLOGY LLC, priority 2014, published 2017)
